Measurements taken from patent US20230339991A1, “HYPOXIA-ACTIVATED DNA ALKYLATING AGENT AND MEDICAL USE THEREOF” (ASCENTAWITS PHARMACEUTICALS, LTD., priority 2020, published 2023).
Where two headings read alike, the source gives them in different places.

Tests used:
[1] = tested on: AA8; assay: Cell inhibition of different species, normoxic, AA8; assay type: cell-based, Rat; details: IC50 AA8/H460
Text: To further compare the cytotoxicity of TH-302 with that of compound A, the following further provide test results for H460 cell line and cells from different species at different test times in the same laboratory, with the same operator and under the same experimental conditions.

[2] = tested on: PSN-1 cells; assay: Clonogenic assay, PSN-1; assay type: cell-based, human; details: for IC90: Homo sapiens, PSN1, 3 h; for HCR: IC90 ratio normoxic/N2
Method: (§1) The following PSN-1 cells, PANC1 cells, MiaPaCa-2 cells, H460 cells, DLD-1 WT (wild type) cells, DLD-1 BRCA2 KO (BRCA2 deletion) cells were seeded in 10 cm vitreous cell culture plates at specific cell numbers and incubated for 2 days at 37° C. and under the conditions of 5% CO2, 95% air and 100% relative humidity. On day 3, test compounds TH302 or AST-002-P2 at the specific concentrations were added to the cells, and incubated for 3 hours together with the cells under normoxic (21% O2) and hypoxic conditions (<0.01% O2), respectively. After cells were stimulated by compounds, the cells were washed once with 1×PBS and digested into single cells with pancreatic enzymes for cell counting. The above cells in specific cell numbers were reseeded in a new culture plate and cultured for 7 days to perform single cell colony formation. When single cells in compound culture plates stimulated under normoxic conditions proliferated to about 50 cells, the cultures were removed and stained with 0.5% crystal violet for 40 minutes. After staining, cells were counted for colonies using Colony Counter (VWR) and the IC90 was calculated.

[3] = tested on: H460 cells; assay: Clonogenic assay, H460; assay type: cell-based, human; details: for IC90: Homo sapiens, NCI-H460, 3 h; for HCR: IC90 ratio normoxic/N2
Method: as §1

[4] = tested on: DLD-1 BRCA2 KO (BRCA2 deletion) cells; assay: Clonogenic assay, DLD-1 BRCA2 KO; assay type: cell-based; details: for IC90: Homo sapiens, 3 h
Method: as §1

[5] = tested on: PANC1 cells; assay: Clonogenic assay, PANC1; assay type: cell-based, human; details: for IC90: Homo sapiens, PANC-1, 3 h
Method: as §1

[6] = tested on: MiaPaCa-2 cells; assay: Clonogenic assay, MiaPaCa-2; assay type: cell-based, human; details: for IC90: Homo sapiens, MIA PaCa-2, 3 h
Method: as §1

[7] = molecular target: P-gp (Homo sapiens, UniProt P08183); assay: P-gp substrate evaluation, MDCKII-MDR1 penetration test; details: for recovery at 2 h: dog; for Pgp substrate status: with and without verapamil
Chain of P-gp (P08183 whole entry): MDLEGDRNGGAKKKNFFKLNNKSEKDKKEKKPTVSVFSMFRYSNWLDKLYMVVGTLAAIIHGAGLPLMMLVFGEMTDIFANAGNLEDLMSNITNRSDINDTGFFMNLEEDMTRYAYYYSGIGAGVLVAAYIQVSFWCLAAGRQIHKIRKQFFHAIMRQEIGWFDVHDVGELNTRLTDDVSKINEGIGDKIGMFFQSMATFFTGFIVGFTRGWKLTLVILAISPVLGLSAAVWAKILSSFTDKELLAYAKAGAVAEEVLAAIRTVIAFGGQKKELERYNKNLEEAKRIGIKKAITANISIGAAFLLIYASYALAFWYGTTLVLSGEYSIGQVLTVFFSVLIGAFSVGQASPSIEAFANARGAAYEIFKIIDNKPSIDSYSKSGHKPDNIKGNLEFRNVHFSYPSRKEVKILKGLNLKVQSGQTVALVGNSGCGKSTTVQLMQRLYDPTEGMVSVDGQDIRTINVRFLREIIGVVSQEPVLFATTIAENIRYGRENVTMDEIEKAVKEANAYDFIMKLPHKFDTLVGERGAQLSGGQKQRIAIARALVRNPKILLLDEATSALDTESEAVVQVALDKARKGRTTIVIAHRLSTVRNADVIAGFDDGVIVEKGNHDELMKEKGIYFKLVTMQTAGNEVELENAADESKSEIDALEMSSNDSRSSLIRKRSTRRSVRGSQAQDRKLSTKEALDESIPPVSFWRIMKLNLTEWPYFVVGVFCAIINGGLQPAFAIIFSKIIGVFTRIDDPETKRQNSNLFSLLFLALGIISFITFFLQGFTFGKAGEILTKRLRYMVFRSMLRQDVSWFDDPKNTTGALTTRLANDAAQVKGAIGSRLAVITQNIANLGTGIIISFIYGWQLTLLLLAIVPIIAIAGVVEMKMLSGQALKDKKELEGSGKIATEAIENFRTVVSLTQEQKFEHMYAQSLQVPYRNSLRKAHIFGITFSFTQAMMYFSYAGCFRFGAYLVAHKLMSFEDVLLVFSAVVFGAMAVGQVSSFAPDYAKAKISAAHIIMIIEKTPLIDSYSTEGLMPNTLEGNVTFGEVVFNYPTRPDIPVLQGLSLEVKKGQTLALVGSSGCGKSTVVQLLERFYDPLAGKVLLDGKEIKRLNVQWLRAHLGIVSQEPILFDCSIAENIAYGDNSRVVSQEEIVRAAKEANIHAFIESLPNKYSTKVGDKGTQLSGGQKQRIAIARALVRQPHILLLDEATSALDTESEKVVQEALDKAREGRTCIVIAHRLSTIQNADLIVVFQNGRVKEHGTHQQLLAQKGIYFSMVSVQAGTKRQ
Method: (1) MDCKII-MDR1 cells were cultured in the cell culture bottle. The conditions of the incubator were 37° C., 5% of CO2, and 95% of the relative humidity. When the cell growth confluence was up to 70-90%, the cells were inoculated to the transwell.
The cell suspension was transferred to the upper compartment of the 96-well transwell, wherein each upper compartment contains 50 μL of the cell suspension. The final inoculum density was 5.45×10^5 cells/cm^2.
(1) The transwell culture plate of the MDCKII-MDRT cells was taken out from the incubator. The cell monolayer membrane was rinsed two times with the buffer solution and incubated at 37° C. for 30 min.
(2) The transport rate that the compound was transported from the top-end to the base-end was tested. 75 μL of the buffer solution contained the sample was added to each upper compartment (top-end), and 235 μL of the buffer solution was added to each lower compartment (base-end).
(3) The transport rate that the compound was transported from the base-end to the top-end was tested. 75 μL of the buffer solution was added to each upper compartment (top-end), and 235 μL of the buffer solution contained the sample was added to each lower compartment (base-end).
(6) The upper and lower transits were merged up and then incubated at 37° C. for 2 h.
(7) After the incubation was finished, 50 μL of the samples from each well of the upper compartment and the lower compartment of the transwell culture plate were respectively added to new sample tubes. 200 μL of the acetonitrile containing the internal standard (100 nM Alprazolam, 200 nM Labetalol, 200 nM caffeine and 2 μM Ketoprofen) was added to each sample tube. After the sample tubes were vortexed for 10 min, they were centrifuged at 3220 g for 30 min. 100 μL of the supernatant was taken and diluted with the same volume of the water to perform the LC-MS/MS analysis. Each sample was adopted to the three parallel incubation.
The peak area was calculated by the result of the ion chromatography. The permeability coefficient (Papp, unit: cm/s×10^−6) of the compound was calculated by the formula: […]
In the formula, “VA” refers to the volume of the solution on the acceptor (Ap→Bl was 0.235 mL, and Bl→Ap was 0.075 mL), “Area” refers to the area of the permeable membrane of the 96-well transwell (0.143 cm^2), “time” refers to the incubation time (in second), “[drug]acceptor” refers to the drug concentration of the acceptor after the incubation, and “[drug]initial, donor” refers to the initial concentration of the drug administration before the incubation.
The efflux ratio was calculated by the following formula: […]
In the formula, “Papp (B-A)” refers to the permeability coefficient from the base-end to the top-end, and the term “Papp (A-B)” refers to the permeability coefficient from the top-end to the base-end.
The recovery was calculated by the following formula: […]
In the formula, “VA” refers to the volume of the solution on the acceptor (mL), “VD” refers to the volume of the solution on the donor (mL), “[drug]acceptor” refers to the drug concentration of the acceptor after the incubation, “[drug]donor” refers to the drug concentration of the donor after the incubation, and the term “[drug]initial, donor” refers to the initial concentration of the drug administration before the incubation.

[8] = 21% O2, read-out: IC90 Normoxia
[9] = <0.01% O2, read-out: IC90 Hypoxia
[10] = IC90 ratio normoxic/N2, listed as compound C
[11] = MDCK-MDR1, Recovery (%) AP-BL, verapamil 0 μM
[12] = MDCK-MDR1, Recovery (%) AP-BL, verapamil 100 μM
[13] = MDCK-MDR1, Recovery (%) BL-AP, verapamil 100 μM

Structure (SMILES): O=[N+]([O-])c1ccc(C(OP(=O)(N2CC2)N2CC2)C(F)(F)F)c2ccccc12 (racemic) [Compound A]
- Multiplier: Rat/Human ([1]; exposure 3 days): 110

Structure (SMILES): O=[N+]([O-])c1ccc([C@@H](OP(=O)(N2CC2)N2CC2)C(F)(F)F)c2ccccc12 (single isomer, unassigned) [Compound C]
- IC90 [2, 8]: > 1 µM
- IC90 [2, 9]: 0.286 µM
- HCR [2]: >3.5
- IC90 [3, 8]: 0.066 µM
- IC90 [3, 9]: 0.041 µM
- HCR [3]: 1.6
- IC90 [4, 8]: > 10 µM
- IC90 [4, 9]: 0.112 µM
- HCR ([4]; IC90 ratio normoxic/N2): >89
- HCR [4, 10]: > 89
- IC90 [5, 8]: > 10 µM
- IC90 [5, 9]: > 1 µM
- IC90 [6, 8]: > 10 µM
- IC90 [6, 9]: 0.159 µM
- HCR ([6]; IC90 ratio normoxic/N2): >63
- HCR [6, 10]: > 63
- recovery at 2 h [7, 11]: 57.8%
- recovery at 2 h [7, 12]: 61.5%
- recovery at 2 h [7, 13]: 66.3%
- Pgp substrate status [7]: not substrates for Pgp

Structure (SMILES): O=[N+]([O-])c1ccc([C@H](OP(=O)(N2CC2)N2CC2)C(F)(F)F)c2ccccc12 [Compound B]
- recovery at 2 h [7, 11]: 59.3%
- recovery at 2 h [7, 12]: 65.2%
- recovery at 2 h [7, 13]: 68.3%
- Pgp substrate status [7]: not substrates for Pgp

Structure (SMILES): Cn1c(COP(=O)(NCCBr)NCCBr)cnc1[N+](=O)[O-] [TH-302, Evofosfamide]
- Multiplier: Rat/Human ([1]; exposure 2 h): 41.5
- IC90 [2, 8]: 30.5 µM
- IC90 [2, 9]: 0.164 µM
- HCR [2]: 186
- IC90 [3, 8]: 15.6 µM
- IC90 [3, 9]: 0.021 µM
- HCR [3]: 741
- IC90 [4, 8]: 21.9 µM
- IC90 [4, 9]: 0.00301 µM
- HCR ([4]; IC90 ratio normoxic/N2): 7277
- IC90 [5, 8]: > 100 µM
- IC90 [5, 9]: 7.29 µM
- HCR ([5]; IC90 ratio normoxic/N2): >13.7
- IC90 [6, 8]: 9.68 µM
- IC90 [6, 9]: 0.388 µM
- HCR ([6]; IC90 ratio normoxic/N2): 25
